Reference: patent US7163952B2, “Azole compound and medicinal use thereof” (Japan Tobacco Inc., priority 2001, dated 2007)

Row | melting point | Compound
1 | 250 °C (dec.) | CN(c1ccc(C(=O)O)cc1)c1nc(-c2cccc(OCc3ccc(C4CCCCC4)cc3)c2)cs1 [Example 139, 4-(N-(4-(3-(4-cyclohexylbenzyloxy)phenyl)-2-thiazolyl)-N-methylamino)benzoic acid]
2 | 230 °C (dec.) | CC1CCN(c2ccc(C(=O)Nc3ccc(-c4csc(N(c5ccc(C(=O)O)cc5)C(C)C)n4)cc3)cc2)CC1.Cl
3 | 153 to 157 °C | CC(C)N(c1nc(-c2ccc(NC(=O)c3ccc(C4CCCCC4)cc3)cc2)cs1)c1c(F)c(F)c(C(=O)O)c(F)c1F [Example 52, 4-(N-(4-(4-(4-cyclohexylbenzoylamino)phenyl)-2-thiazolyl)-N-isopropylamino)-2,3,5,6-tetrafluorobenzoic acid]
4 | 183 to 184 °C | COc1ccc(OCc2ccc(C(F)(F)F)cc2)c(-c2csc(N(CCC3CCCCC3)Cc3ccc(C(=O)O)cc3)n2)c1 [Example 166, 4-((N-(2-cyclohexylethyl)-N-(4-(5-methoxy-2-(4-trifluoromethylbenzyloxy)phenyl)-2-thiazolyl)amino)methyl)benzoic acid]
5 | 250 °C (dec.) | CCN(c1ccc(C(=O)O)cc1)c1nc(-c2ccc(NC(=O)c3ccc(C4CCCCC4)cc3)cc2)cs1 [Example 8, 4-(N-(4-(4-(4-cyclohexylbenzoylamino)phenyl)-2-thiazolyl)-N-ethylamino)benzoic acid]
6 | 125 to 127 °C | CN(Cc1ccc(Cl)c(Cl)c1)c1ccc(-c2csc(N(Cc3ccc(C(=O)O)cc3)CC3CCCCC3)n2)cc1 [Example 118, 4-((N-cyclohexylmethyl-N-(4-(4-(N-(3,4-dichlorobenzyl)-N-methylamino)phenyl)-2-thiazolyl)amino)methyl)benzoic acid]
7 | 172 to 173 °C | Cc1nc(N(C)Cc2ccc(C3CCCCC3)cc2)sc1-c1csc(N(C)Cc2ccc(C(=O)O)cc2)n1 [Example 227, 4-((N-(2′-(N-(4-cyclohexylbenzyl)-N-methylamino)-4′-methyl-4,5′-bithiazolyl-2-yl)-N-methylamino)methyl)benzoic acid]
8 | 125 to 130 °C | O=C(O)c1ccc(N(CCC2CCCCC2)c2nc(-c3cc(F)ccc3OCc3ccccc3)cs2)cc1 [Example 174, 4-(N-(4-(2-benzyloxy-5-fluorophenyl)-2-thiazolyl)-N-(2-cyclohexylethyl)amino)benzoic acid]
9 | 230 °C (dec.) | O=C(O)CCCN(c1ccc(C(=O)O)cc1)c1nc(-c2ccc(OCc3ccc(C4CCCCC4)cc3)cc2)cs1 [Example 26, 4-(N-(3-carboxypropyl)-N-(4-(4-(4-cyclohexylbenzyloxy)phenyl)-2-thiazolyl)amino)benzoic acid]
10 | 230 °C (dec.) | CN(c1ccc(C(=O)O)cc1)c1nc(-c2ccc(OCc3ccc(Cl)c(Cl)c3)cc2)cs1 [Example 89, 4-(N-(4-(4-(3,4-dichlorobenzyloxy)phenyl)-2-thiazolyl)-N-methylamino)benzoic acid]
11 | 230 °C (dec.) | O=C(O)c1ccc(C2(c3nc(-c4ccc(OCc5ccc(C6CCCCC6)cc5)cc4)cs3)CCOCC2)cc1 [Example 101, 4-(4-(4-(4-(4-cyclohexylbenzyloxy)phenyl)-2-thiazolyl)tetrahydropyran-4-yl)benzoic acid]
12 | 220 °C (dec.) | CC(C)N(c1ccc(OCC(=O)O)cc1)c1nc(-c2ccc(NC(=O)c3ccc(N4CCCCC4)cc3)cc2)cs1 [Example 53, (4-(N-isopropyl-N-(4-(4-(4-piperidinobenzoylamino)phenyl)-2-thiazolyl)amino)phenoxy)acetic acid]
13 | 222 to 224 °C | O=C(O)c1ccc(C2(c3nc(-c4ccc(OCc5ccc(C6CCCCC6)cc5)cc4)cs3)CCCCC2)cc1 [Example 100, 4-(1-(4-(4-(4-cyclohexylbenzyloxy)phenyl)-2-thiazolyl)cyclohexyl)benzoic acid]
14 | 220 °C (dec.) | CC(C)N(c1ccc(C(=O)O)c(Cl)c1)c1nc(-c2ccc(NC(=O)c3ccc(N4CCCCC4)cc3)cc2)cs1.Cl
15 | 230 °C | CC(C)N(c1ccc(C(=O)O)cc1)c1nc(-c2nc3ccc(OCc4ccc(Cl)c(Cl)c4)cc3o2)cs1 [Example 183, 4-(N-(4-(6-(3,4-dichlorobenzyloxy)-2-benzooxazolyl)-2-thiazolyl)-N-isopropylamino)benzoic acid]
16 | 182 to 189 °C | O=C(O)c1ccc(N(CC2CCCCC2)c2nc(-c3nc4ccc(OCc5ccc(Cl)c(Cl)c5)cc4o3)cs2)cc1 [Example 187, 4-(N-cyclohexylmethyl-N-(4-(6-(3,4-dichlorobenzyloxy)-2-benzooxazolyl)-2-thiazolyl)amino)benzoic acid]
17 | 189 to 190 °C | CC(C)N(c1ccc(C(=O)O)cc1)c1nc(-c2cccc(OCc3ccc(C4CCCCC4)cc3)c2)cs1 [Example 141, 4-(N-(4-(3-(4-cyclohexylbenzyloxy)phenyl)-2-thiazolyl)-N-isopropylamino)benzoic acid]
18 | 230 °C (dec.) | O=C(O)c1cccc(Nc2nc(-c3ccc(NC(=O)c4ccc(C5CCCCC5)cc4)cc3)cs2)c1 [Example 27, 3-(4-(4-(4-cyclohexylbenzoylamino)phenyl)-2-thiazolylamino)benzoic acid]
19 | 144 to 145 °C | CN(Cc1ccc(C(=O)O)cc1)c1nc(-c2cnc(N(C)Cc3ccc(C4CCCCC4)cc3)c(Cl)c2)cs1 [Example 232, 4-((N-(4-(5-chloro-6-(N-(4-cyclohexylbenzyl)-N-methylamino)-3-pyridyl)-2-thiazolyl)-N-methylamino)methyl)benzoic acid]
20 | 180 to 181 °C | CN(Cc1ccc([C@H]2CC[C@@H](O)CC2)cc1)c1ccc(-c2csc(N(C)Cc3ccc(C(=O)O)cc3)n2)cc1 [Example 194, cis-4-((N-(4-(4-(N-(4-(4-hydroxycyclohexyl)benzyl)-N-methylamino)phenyl)-2-thiazolyl)-N-methylamino)methyl)benzoic acid]

Second part, the compound before the results:

Row | Compound | melting point
21 | O=C(O)c1ccc(CN(CC2CCCCC2)c2nc(-c3ccc(N(Cc4ccc(Cl)c(Cl)c4)Cc4ccc(Cl)c(Cl)c4)cc3)cs2)cc1 [Example 117, 4-((N-(4-(4-(bis(3,4-dichlorobenzyl)amino)phenyl)-2-thiazolyl)-N-cyclohexylmethylamino)methyl)benzoic acid] | 120 °C (dec.)
22 | O=C(O)c1ccc(Nc2nc(-c3ccc(OCc4ccc(-c5ccccc5)cc4)cc3)cs2)cc1 [Example 95, 4-(4-(4-(4-biphenylylmethoxy)phenyl)-2-thiazolylamino)benzoic acid] | 230 °C (dec.)
23 | CN(Cc1ccc(C2CCC(C)(C)CC2)cc1)c1ccc(-c2csc(N(C)Cc3ccc(C(=O)[O-])cc3)n2)cc1.[Na+] [Example 216, sodium 4-((N-(4-(4-(N-(4-(4,4-dimethylcyclohexyl)benzyl)-N-methylamino)phenyl)-2-thiazolyl)-N-methylamino)methyl)benzoate] | 230 °C
24 | CN(Cc1ccc(C(C)(C)C)cc1)c1ccc(-c2csc(N(C)Cc3ccc(C(=O)O)cc3)n2)cc1 [Example 233, 4-((N-(4-(4-(N-(4-tert-butylbenzyl)-N-methylamino)phenyl)-2-thiazolyl)-N-methylamino)methyl)benzoic acid] | 166 to 167 °C
25 | CN(CCc1ccc(C(C)(C)C)cc1)c1ccc(-c2csc(N(C)Cc3ccc(C(=O)O)cc3)n2)cc1 [Example 235, 4-((N-(4-(4-(N-(2-(4-tert-butylphenyl)ethyl)-N-methylamino)phenyl)-2-thiazolyl)-N-methylamino)methyl)benzoic acid] | 162 °C
26 | O=C(O)CN(c1ccc(C(=O)O)cc1)c1nc(-c2ccc(NC(=O)C3CCCCC3)cc2)cs1 [Example 14, 4-(N-carboxymethyl-N-(4-(4-(cyclohexanecarbonylamino)phenyl)-2-thiazolyl)amino)benzoic acid] | 210 °C (dec.)
27 | COc1ccc(OCc2ccccc2)c(-c2csc(Nc3ccc(C(=O)O)cc3OCc3ccccc3)n2)c1 [Example 156, 3-benzyloxy-4-(4-(2-benzyloxy-5-methoxyphenyl)-2-thiazolylamino)benzoic acid] | 218 to 221 °C
28 | CC(C)N(Cc1ccc(C(=O)O)cc1)c1nc(-c2ccc(NS(=O)(=O)c3ccc(Cl)c(Cl)c3)cc2)cs1 [Example 105, 4-((N-(4-(4-(3,4-dichlorobenzenesulfonylamino)phenyl)-2-thiazolyl)-N-isopropylamino)methyl)benzoic acid] | 193 to 195 °C
29 | CN(Cc1ccc(CC(C)(C)C)cc1)c1ccc(-c2csc(N(C)Cc3ccc(C(=O)O)cc3)n2)cc1 [Example 229, 4-((N-(4-(4-(N-(4-(2,2-dimethylpropyl)benzyl)-N-methylamino)phenyl)-2-thiazolyl)-N-methylamino)methyl)benzoic acid] | 176 to 177 °C
30 | CN(c1ccc(C(=O)O)cc1)c1nc(-c2ccc(NCc3ccc(Cl)c(Cl)c3)cc2)cs1 [Example 128, 4-(N-(4-(4-(3,4-dichlorobenzylamino)phenyl)-2-thiazolyl)-N-methylamino)benzoic acid] | 223 to 225 °C
31 | CN(Cc1ccc(C(=O)O)cc1)c1nc(-c2ccc(CN3CCN(Cc4ccccc4)CC3)cc2)cs1 [Example 240, 4-((N-(4-(4-(4-benzyl-1-piperazinylmethyl)phenyl)-2-thiazolyl)-N-methylamino)methyl)benzoic acid] | 130 to 135 °C
32 | CN(Cc1ccc(C(=O)O)cc1)c1nc(-c2ccc(OCc3ccc(C4CCCCC4)cc3)cc2)cs1.CS(=O)(=O)O | 175 °C (dec.)
33 | CCN(c1ccc(C(=O)O)cc1)c1nc(-c2ccc(NC(=O)c3ccccc3)cc2)cs1 [Example 7, 4-(N-(4-(4-benzoylaminophenyl)-2-thiazolyl)-N-ethylamino)benzoic acid] | 250 °C (dec.)
34 | O=C(O)c1ccc(CNc2nc(-c3cc(Cl)ccc3OCc3ccccc3)cs2)cc1 [Example 162, 4-((4-(2-benzyloxy-5-chlorophenyl)-2-thiazolylamino)methyl)benzoic acid] | 210 to 211 °C
35 | CC(C)N(Cc1ccc(C(=O)O)cc1)c1nc(-c2ccc(NC(=O)c3ccc(N4CCOCC4)cc3)cc2)cs1 [Example 63, 4-((N-isopropyl-N-(4-(4-(4-morpholinobenzoylamino)phenyl)-2-thiazolyl)amino)methyl)benzoic acid] | 250 °C (dec.)
